Source: patent US11324724B2, “N-(2,2-difluoroethyl)-N-[(pyrimidinylamino)propanyl]arylcarboxamides” (Boehringer Ingelheim International GmbH, priority 2017, dated 2022)

Target: T1, human Orexin 1 receptor (Homo sapiens, UniProt O43613)
T1 construct: stably expressing the full-length human Orexin 1 receptor; expressed in transfected cells; host or cells: CHO-K1 (CHO-K1/hOx1), co-expressing aequorin
T1 sequence (O43613 1-425): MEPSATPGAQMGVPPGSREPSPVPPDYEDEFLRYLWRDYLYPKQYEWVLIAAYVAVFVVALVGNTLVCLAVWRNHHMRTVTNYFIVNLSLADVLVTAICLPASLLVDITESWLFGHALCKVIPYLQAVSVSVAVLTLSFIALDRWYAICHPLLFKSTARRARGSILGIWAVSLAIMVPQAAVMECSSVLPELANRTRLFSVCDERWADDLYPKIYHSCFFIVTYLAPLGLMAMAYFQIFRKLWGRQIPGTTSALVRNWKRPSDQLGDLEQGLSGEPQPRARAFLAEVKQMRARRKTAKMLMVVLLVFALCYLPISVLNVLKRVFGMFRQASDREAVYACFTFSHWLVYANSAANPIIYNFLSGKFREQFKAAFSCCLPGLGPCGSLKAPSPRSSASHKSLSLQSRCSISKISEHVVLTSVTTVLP
Assay: Assay A: in vitro testing of OX1R potency, OX1R IP1
Type: cell-based
Conditions: 0.5 nM Orexin A concentration
Text: (§1) Activation of the orexin receptors expressed in cell lines results in an increase in intracellular IP3 concentration. IP1, a downstream metabolite of IP3, accumulates in cells following receptor activation and is stable in the presence of LiCl. Using Homogeneous Time-Resolved Fluorescence technology with Lumi4-Tb cryptate (commercially available from Cisbio Bioassay.) and a suitable fluorescence plate reader. This functional response is detectable and quantifiable as described in Trinquet et al. Anal. Biochem. 2006, 358, 126-135, Degorce et al. Curr. Chem. Genomics 2009, 3, 22-32. This technique is used to characterize pharmacological modification of the orexin receptors.
A. In Vitro Testing of OX1R Potency: OX1R IP1
IP1 measurements are performed in CHO-K1 cells stably expressing the full-length human Orexin 1 receptor and the aequorin photoprotein. Cells are cultivated in Ham's nutrient mixture F12 medium with 10% fetal calf serum, in a 37° C., 95% humidity and 5% CO2 incubator. The CHO-K1/hOx1 cell mass is expanded to larger cell numbers. The cells are obtained as frozen cells in cryo-vials and stored until use at −150° C. The viability of the cells after thawing is >90%. In preparation for the assay, 24 hours before the assay, the cells are thawed at 37° C. and immediately diluted with cell culture medium. After centrifugation, the cell pellet is re-suspended in medium and then distributed into the assay plates with a density of 10000 cells/25 μL per well. The plates are incubated for one hour at room temperature to reduce edge effects before they are incubated for 24 hours at 37° C./5% CO2. Compounds are prepared by an 8-point serial dilution in DMSO and a final dilution step into assay buffer (HBSS with 20 mM HEPES, 0.1% BSA and 50 mM LiCl, pH 7.4) to ensure a final DMSO concentration of 1% in the assay.
On the day of the assay, cells in the plate are washed twice with 60 μL assay buffer (20 μL buffer remained in the wells after washing), followed by adding 5 μL per well of compounds diluted in assay buffer. After 15 minutes of incubation at room temperature 5 μL per well of Orexin A peptide (final concentration: 0.5 nM, and/or 50 nM) dissolved in assay buffer is added to the assay plate. The assay plate is incubated for 60 minutes at 37° C. Then 5 μl per well of Anti-IP1-Cryptate Tb solution and 5 μl per well of IP1-d2 dilution are added and the plate is incubated for a further 60 minutes light protected at room temperature. The emissions at 615 nm and 665 nm (Excitation wavelength: 320 nm) are measured using an EnVision reader (PerkinElmer). The ratio between the emission at 665 nm and 615 is calculated by the reader.
(§2) 8-point four parametric non-linear curve fitting and determination of IC50 values and Hill slopes is performed using a regular analysis software e.g. AssayExplorer (Accelrys). In order to establish an agonist concentration independent parameter, Kb values are calculated using the following equation: IC50/((2+(A/EC50)^n)^1/n−1) (with A=concentration agonist, EC50=EC50 agonist, n=Hill slope agonist) (see P. Leff, I. G. Dougall, Trends Pharmacol. Sci. 1993, 14(4),110-112).

SMILES | Kb [µM]
C[C@@H](CNc1ncc(C(F)(F)F)cn1)N(CC(F)F)C(=O)c1cc(F)ccc1-c1ncccn1 [Example 4] | 0.00042
C[C@@H](CNc1ncc(C(F)(F)F)cn1)N(CC(F)F)C(=O)c1c(F)cccc1-c1ncccn1 [Example 5] | 0.00067

Same assay, conditions: selectivity ratio of Assay B and Assay A Kb

SMILES | OX2R Kb/OX1R Kb
C[C@@H](CNc1ncc(C(F)(F)F)cn1)N(CC(F)F)C(=O)c1cc(F)ccc1-c1ncccn1 [Example 4] | 169
C[C@@H](CNc1ncc(C(F)(F)F)cn1)N(CC(F)F)C(=O)c1c(F)cccc1-c1ncccn1 [Example 5] | 213

Target: T2, human orexin 2 receptor (Homo sapiens, UniProt O43614)
T2 construct: stably expressing the full-length human orexin 2 receptor; expressed in transfected cells; host or cells: CHO-K1 (CHO-K1/hOx2), co-expressing aequorin
T2 sequence (O43614 1-444): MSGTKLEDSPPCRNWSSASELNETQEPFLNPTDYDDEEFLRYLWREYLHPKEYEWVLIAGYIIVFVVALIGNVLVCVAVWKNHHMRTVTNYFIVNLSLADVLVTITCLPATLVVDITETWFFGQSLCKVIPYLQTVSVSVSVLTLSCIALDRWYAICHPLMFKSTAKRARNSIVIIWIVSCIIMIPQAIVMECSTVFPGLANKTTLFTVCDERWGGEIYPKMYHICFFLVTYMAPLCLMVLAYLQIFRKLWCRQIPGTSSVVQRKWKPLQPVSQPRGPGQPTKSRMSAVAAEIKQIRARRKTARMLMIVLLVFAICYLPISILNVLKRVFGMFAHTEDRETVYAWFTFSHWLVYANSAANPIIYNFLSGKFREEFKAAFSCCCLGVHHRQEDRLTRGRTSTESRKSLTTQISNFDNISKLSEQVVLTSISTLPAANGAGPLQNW
Assay: Assay B: in vitro testing of OX2R potency, OX2R IP1
Type: cell-based
Conditions: 0.5 nM Orexin A concentration
Text: as §1
B. In Vitro Testing of OX2R Potency: OX2R IP1
IP1 measurements are performed in CHO-K1 cells stably expressing the full-length human orexin 2 receptor and the aequorin photoprotein. Cells are cultivated in Ham's nutrient mixture F12 medium with 10% fetal calf serum, in a 37° C., 95% humidity and 5% CO2 incubator. The CHO-K1/hOx2 cell mass is expanded to larger cell numbers. The cells are obtained as frozen cells in cryo-vials and stored until use at −150° C. The viability of the cells after thawing is >90%. In preparation for the assay, 24 hours before the assay, the cells are thawed at 37° C. and immediately diluted with cell culture medium. After centrifugation, the cell pellet is resuspended in medium and then distributed into the assay plates with a density of 5000 cells/25 μper well. The plates are incubated for one hour at room temperature to reduce edge effects before they are incubated for 24 hours at 37° C./5% CO2. Compounds are prepared by a 8-point serial dilution in DMSO and a final dilution step into assay buffer (HBSS with 20 mM HEPES, 0.1% BSA and 50 mM LiCl, pH 7.4) to ensure a final DMSO concentration of 1% in the assay. On the day of the assay, cells in the plate are washed twice with 60 μL assay buffer (20 μL buffer remained in the wells after washing), followed by adding 5 μL per well of compounds diluted in assay buffer. After 15 minutes of incubation at room temperature 5 μL per well of Orexin A peptide (final concentration: 0.5 nM) dissolved in assay buffer is added to the assay plate. The assay plate is incubated for 60 minutes at 37° C. Then 5 μl per well of Anti-IP1-Cryptate Tb solution and 5 μl per well of IP1-d2 dilution are added to all well of the plate and the plate is incubated for a further 60 minutes light protected at room temperature. The emission at 615 nm and 665 nm (Excitation wavelength: 320 nm) are measured using an EnVision reader (PerkinElmer). The ratio between the emission at 665 nm and 615 is calculated by the reader.
as §2

SMILES | Kb [µM]
C[C@@H](CNc1ncc(C(F)(F)F)cn1)N(CC(F)F)C(=O)c1cc(F)ccc1-c1ncccn1 [Example 4] | 0.0708
C[C@@H](CNc1ncc(C(F)(F)F)cn1)N(CC(F)F)C(=O)c1c(F)cccc1-c1ncccn1 [Example 5] | 0.143

System: not listed separately
Assay: Assay C: metabolic stability in human liver microsomes (Human MST)
Type: in vitro ADME
Conditions: pH 7.6, pooled human liver microsomes, 37° C., read-out: Assay C: Human MST t1/2
Description: C. Assessment of Metabolic Stability in Human Liver Microsomes (Human MST)
The metabolic stability of the compounds according to the invention may be investigated as follows:
The metabolic degradation of the test compound is assayed at 37° C. with pooled human liver microsomes. The final incubation volume of 100 μL per time point contains TRIS buffer pH 7.6 at room temperature (0.1 M), MgCl2 (5 mM), microsomal protein (1 mg/mL) and the test compound at a final concentration of 1 μM. Following a short pre-incubation period at 37° C., the reactions are initiated by addition of beta-nicotinamide adenine dinucleotide phosphate, reduced form (NADPH, 1 mM), and terminated by transferring an aliquot into solvent after different time points. After centrifugation (10000 g, 5 min), an aliquot of the supernatant is assayed by LC-MS/MS for the amount of parent compound. The half-life (t1/2) is determined by the slope of the semi-logarithmic plot of the concentration-time profile.

SMILES | half-life at 1 μM [h]
CC[C@@H](CNc1ncc(C(F)(F)F)cn1)N(C)C(=O)c1c(F)cccc1-n1nccn1 [Ex 91 in WO2016/ 034882] | > 2.17
C[C@@H](CNc1ncc(C(F)(F)F)cn1)N(CC(F)F)C(=O)c1cc(F)ccc1-c1ncccn1 [Example 4] | > 2.17
C[C@@H](CNc1ncc(C(F)(F)F)cn1)N(CC(F)F)C(=O)c1c(F)cccc1-c1ncccn1 [Example 5] | > 2.17

System: human MDR1 P-gp
Assay: Assay D: efflux in MDCK cells transfected with the human MDR1 gene
Type: in vitro ADME, canine
Conditions: dog; MDCK-MDR1, pH 7.4, 37° C.; read-out: Assay D: MDCK efflux ratio (BA/AB)
Description: The MDCK assay provides information on the potential of a compound to pass the blood brain barrier. Permeability measurements across polarized, confluent MDCK-MDR1 cell monolayers grown on permeable filter supports are used as an in vitro absorption model: apparent permeability coefficients (PE) of the compounds across the MDCK-MDR1 cell monolayers are measured (pH 7.4, 37° C.) in apical-to-basal (AB) and basal-to-apical (BA) transport direction.
The AB permeability (PEAB) represents drug absorption from the blood into the brain and the BA permeability (PEBA) drug efflux from the brain back into the blood via both, passive permeability as well as active transport mechanisms mediated by efflux and uptake transporters that are expressed on the MDCK-MDR1 cells, predominantly by the overexpressed human MDR1 P-gp. Identical or similar permeabilities in both transport directions indicate passive permeation, vectorial permeability points to additional active transport mechanisms. Higher PEBA than PEAB (PEBA/PEAB>5) indicates the involvement of active efflux mediated by MDR1 P-gp, which might compromises the goal to achieve sufficient brain exposure. Therefore this assay provides valuable support for selection of compounds applicable for further in vivo testing. High permeability not limited by efflux at the blood brain barrier is a favourable characteristic for compounds that are to be used for drugs acting primarily in the CNS
D. Assessment of Efflux in Madin-Darby Canine Kidney (MDCK) Cells Transfected with the Human MDR1 Gene
Apparent permeability coefficients (PE) of the compounds across the MDCK-MDR1 cell monolayers are measured (pH 7.4, 37° C.) in apical-to-basal (AB) and basal-to-apical (BA) transport direction. AB permeability (PEAB) represents drug absorption from the blood into the brain and BA permeability (PEBA) drug efflux from the brain back into the blood via both passive permeability as well as active transport mechanisms mediated by efflux and uptake transporters that are expressed on the MDCK-MDR1 cells, predominantly by the overexpressed human MDR1 P-gp. The compounds are assigned to permeability/absorption classes by comparison of the AB permeabilities with the AB permeabilities of reference compounds with known in vitro permeability and oral absorption in the human. Identical or similar permeabilities in both transport directions indicate passive permeation, vectorial permeability points to additional active transport mechanisms. Higher PEBA than PEAB indicates the involvement of active efflux mediated by MDR1 P-gp. Active transport is concentration-dependently saturable.
MDCK-MDR1 cells (1-2×10 e5 cells/1 cm2 area) are seeded on filter inserts (Costar transwell polycarbonate or PET filters, 0.4 μm pore size) and cultured (DMEM) for 7 days. Subsequently, the MDR1 expression is boosted by culturing the cells with 5 mM sodium butyrate in full medium for 2 days. Compounds are dissolved in appropriate solvent (like DMSO, 1-20 mM stock solutions). Stock solutions are diluted with HTP-4 buffer (128.13 mM NaCl, 5.36 mM KCl, 1 mM MgSO4, 1.8 mM CaCl2, 4.17 mM NaHCO3, 1.19 mM Na2HPO4×7H2O, 0.41 mM NaH2PO4×H2O, 15 mM HEPES, 20 mM glucose, 0.25% BSA, pH 7.4) to prepare the transport solutions (0.1-300 μM compound, final DMSO<=0.5%). The transport solution (TL) is applied to the apical or basolateral donor side for measuring A-B or B-A permeability (3 filter replicates), respectively. The receiver side contains the same buffer as the donor side. Samples are collected at the start and end of experiment from the donor and at various time intervals for up to 2 hours also from the receiver side for concentration measurement by HPLC-MS/MS or scintillation counting. Sampled receiver volumes are replaced with fresh receiver solution.

SMILES | efflux ratio
CC[C@@H](CNc1ncc(C(F)(F)F)cn1)N(C)C(=O)c1nc(C)ccc1-c1ncccn1 [Ex 84 in WO2016/ 034882, reference compound] | < 3
CC[C@@H](CNc1ncc(C(F)(F)F)cn1)N(C)C(=O)c1c(F)cccc1-n1nccn1 [Ex 91 in WO2016/ 034882] | < 3
C[C@@H](CNc1ncc(C(F)(F)F)cn1)N(CC(F)F)C(=O)c1cc(F)ccc1-c1ncccn1 [Example 4] | < 3
C[C@@H](CNc1ncc(C(F)(F)F)cn1)N(CC(F)F)C(=O)c1c(F)cccc1-c1ncccn1 [Example 5] | < 3

Target: T3, OX2R (Homo sapiens, UniProt O43614)
T3 sequence (O43614 1-444): T2 sequence (O43614 1-444)
Assay: not given
Conditions: as described in WO2016/034882, Table 3; cited from earlier work

SMILES | OX2R pIC50
CC[C@@H](CNc1ncc(C(F)(F)F)cn1)N(C)C(=O)c1c(F)cccc1-n1nccn1 [Ex 91 in WO2016/ 034882] | < 5.1

Same assay, conditions: corresponds to pIC50 of WO2016/034882, Table 3; cited from earlier work

SMILES | IC50 [µM]
CC[C@@H](CNc1ncc(C(F)(F)F)cn1)N(C)C(=O)c1c(F)cccc1-n1nccn1 [Ex 91 in WO2016/ 034882] | ≥ 7.95
